For this test, the target named is Macrophage metalloelastase (Homo sapiens, UniProt P39900). Kind of test: Binding affinity to MMP12 (unknown origin).
Chain of Macrophage metalloelastase (P39900 whole entry): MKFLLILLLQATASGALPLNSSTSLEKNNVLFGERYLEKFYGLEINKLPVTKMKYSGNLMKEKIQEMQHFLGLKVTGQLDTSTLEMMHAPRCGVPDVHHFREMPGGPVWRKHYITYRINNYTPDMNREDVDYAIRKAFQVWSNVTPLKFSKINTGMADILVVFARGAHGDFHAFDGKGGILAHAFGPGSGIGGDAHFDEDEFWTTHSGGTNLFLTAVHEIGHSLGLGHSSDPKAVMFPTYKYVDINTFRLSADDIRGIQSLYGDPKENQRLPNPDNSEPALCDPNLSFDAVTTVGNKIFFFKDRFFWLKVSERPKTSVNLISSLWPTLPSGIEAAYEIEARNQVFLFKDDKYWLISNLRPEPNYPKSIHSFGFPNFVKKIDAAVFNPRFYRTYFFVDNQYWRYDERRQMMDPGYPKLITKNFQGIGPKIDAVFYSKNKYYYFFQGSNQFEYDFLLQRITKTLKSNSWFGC

Broadly, the Kd is the free concentration of one partner at which half of the binding sites on the other are occupied at equilibrium, for simple one-to-one binding. High values mean lower affinity, low ones higher affinity. Turning to `CC(=O)NO` [ACETOHYDROXAMIC ACID], the Kd came to 6.18 mM. In the case of `O=C(CNS(=O)(=O)c1ccccc1)NO`, binding was characterised by a dissociation constant (Kd) of 6.11e-05 mM.

(Values after ChEMBL document CHEMBL3779821, “On the enthalpic preference of fragment binding” (Medchemcomm, 2016).)
